Results as given in paper PMC11062894, “Protein-based bandpass filters for controlling cellular signaling with chemical inputs” (Nature Chemical Biology, 2023).

Tested on: HEK293T cells
Format: cell-based
Settings: 10 µM A-1155463
Source text: drug controlled switches. […]
drug competition assay. This assay is designed to test if the drug of interest can specifically disrupt the interaction between LD3 and BclXL/Bcl2. The drug-receptors (Bcl2, BclXL) are immobilized on the different channels of the sensor chip, then the binding sites are saturated with LD3. While the flux of A-1155463 (red) flows through the sensor chip, the loss of signal is used to monitor the dissociation of the protein complex. b) Drug effects on reporter protein expression of HEK293T cells. HEK293T cells were transfected with a plasmid for constitutive SEAP production and incubated with indicated drugs for 24 hours. SEAP quantifications were performed to measure the protein production and WST-8 was used to test the cell proliferation. Each bar represents the mean of six biological replicates ± s.d., overlaid with a scatter dot plot of the original data points. […]
was added after 24 hours of drug incubation, and measured for absorbance at 450 nm 4 hours later. […]
production of HEK293T cells. […] SEAP quantifications were performed to measure the protein production and WST-8 was used to test the cell proliferation. For cell proliferation assay, WST-8 was added after 24 hours of drug incubation, and measured its absorbance at 450 nm 4 hours later. […]
ranging from 1 pM to 1 µM were added 12 hours post-transfection, then SEAP was measured 24 hours […]

## CN(C)CC#Cc1ccc(OCCCc2sc(N3CCc4cccc(C(=O)Nc5nc6ccccc6s5)c4C3)nc2C(=O)O)c(F)c1 [A-1155463]
  effect on cell survival: does not perturb
  effect on reporter gene expression: does not perturb
